Experiment [1] concerns T1, IaCPR.
T1 construct: full ORF 2,133 bp, 710 aa; pET32a (vector fusion tag), E. coli Transetta (DE3), Ni-NTA
Description: reductase activity by absorbance, microplate reader. As to conditions: electron acceptor for this constant, pH and temperature not printed in main text. Type of experiment: biochemical, Ilex asprella.

The target of experiment [2] is T2, IaAO4 (Ilex asprella, UniProt A0A976SHZ5).
T2 construct: 513 aa ORF (1,539 bp); pESC-URA in S. cerevisiae WAT11tfAX co-expressing IaAO1
T2 sequence (A0A976SHZ5 1-512): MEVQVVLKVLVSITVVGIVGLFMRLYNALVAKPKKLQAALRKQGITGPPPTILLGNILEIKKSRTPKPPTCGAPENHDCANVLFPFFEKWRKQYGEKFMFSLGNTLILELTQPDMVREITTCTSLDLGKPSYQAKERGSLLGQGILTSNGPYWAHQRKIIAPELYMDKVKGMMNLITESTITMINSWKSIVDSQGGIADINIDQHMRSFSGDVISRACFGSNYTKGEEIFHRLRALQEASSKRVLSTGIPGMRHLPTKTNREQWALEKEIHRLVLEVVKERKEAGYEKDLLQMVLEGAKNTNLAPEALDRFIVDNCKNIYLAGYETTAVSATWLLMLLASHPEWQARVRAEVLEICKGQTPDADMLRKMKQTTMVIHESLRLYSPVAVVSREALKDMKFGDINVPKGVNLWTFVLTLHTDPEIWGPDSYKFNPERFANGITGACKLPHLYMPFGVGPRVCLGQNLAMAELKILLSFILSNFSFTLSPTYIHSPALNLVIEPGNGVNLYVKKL
As to the kind of experiment: yeast metabolite analysis by GC-MS. Type of experiment: cell-based. The conditions noted are these: S. cerevisiae WAT11tfAX co-expressing IaAO1.

Experiment [3] has as its target T3, IaAO5 (Ilex asprella, UniProt A0A976SHZ3).
T3 construct: 515 aa ORF (1,545 bp); pESC-TRP in S. cerevisiae WAT11tfA co-expressing IaAS2
T3 sequence (A0A976SHZ3 1-514): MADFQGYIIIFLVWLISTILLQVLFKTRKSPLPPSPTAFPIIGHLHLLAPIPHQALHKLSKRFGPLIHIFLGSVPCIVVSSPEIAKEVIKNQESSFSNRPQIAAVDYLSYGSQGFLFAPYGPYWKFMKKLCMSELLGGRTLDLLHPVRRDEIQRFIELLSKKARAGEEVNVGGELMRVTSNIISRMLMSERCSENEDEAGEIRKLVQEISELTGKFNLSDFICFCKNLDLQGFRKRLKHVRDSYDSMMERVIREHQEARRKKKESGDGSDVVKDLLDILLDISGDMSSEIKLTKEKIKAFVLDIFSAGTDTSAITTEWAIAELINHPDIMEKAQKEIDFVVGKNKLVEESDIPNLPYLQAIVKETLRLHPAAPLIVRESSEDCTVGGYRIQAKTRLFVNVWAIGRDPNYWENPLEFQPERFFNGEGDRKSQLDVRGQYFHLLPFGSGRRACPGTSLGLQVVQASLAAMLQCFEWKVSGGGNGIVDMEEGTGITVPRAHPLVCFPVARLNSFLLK
As to the kind of experiment: yeast metabolite analysis by GC-MS. Type of experiment: cell-based. The conditions noted are these: S. cerevisiae WAT11tfA co-expressing IaAS2; C-24 oxidation to α-boswellic acid; not seen in strain WAT11tfAX.

We go through four molecules from paper PMC9004391, “Cytochrome P450 Monooxygenase/Cytochrome P450 Reductase Bi-Enzymatic System Isolated From Ilex asprella for Regio-Specific Oxidation of Pentacyclic Triterpenoids” (Frontiers in Plant Science, 2022).

What is called Km is the substrate concentration at which the rate is half of its maximum.

Turning to `NC(=O)C1=CN([C@@H]2O[C@H](COP(=O)(O)OP(=O)(O)OC[C@H]3O[C@@H](n4cnc5c(N)ncnc54)[C@H](OP(=O)(O)O)[C@@H]3O)[C@@H](O)[C@H]2O)C=CC1` [NADPH], the Km in experiment [1] amounted to 7.69 µM.
Consider `CC1(C)CC[C@]2(C(=O)O)CC[C@]3(C)C(=CC[C@@H]4[C@@]5(C)CC[C@H](O)C(C)(C)[C@@H]5CC[C@]43C)[C@@H]2C1` [oleanolic acid], for which the “yeast metabolite analysis by GC-MS” value in experiment [2] (C-23 oxidation to hederagenin and gypsogenic acid) was “catalyzing the oxidation of both OA and UA at the C-23 position”.
`C[C@H]1[C@H](C)CC[C@]2(C(=O)O)CC[C@]3(C)C(=CC[C@@H]4[C@@]5(C)CC[C@H](O)C(C)(C)[C@@H]5CC[C@]43C)[C@H]12` [ursolic acid]: in experiment [2] (C-23 oxidation, products 23-hydroxyl- and 23-carboxyl-ursolic acid tentative), the “yeast metabolite analysis by GC-MS” value was “catalyzing the oxidation of both OA and UA at the C-23 position”.
On to `CC1(C)CC[C@]2(C)CC[C@]3(C)C(=CC[C@@H]4[C@@]5(C)CC[C@H](O)C(C)(C)[C@@H]5CC[C@]43C)[C@@H]2C1` [β-amyrin], for which, in experiment [3], the “yeast metabolite analysis by GC-MS” value is listed as “catalyzes oxidation at the C-24 position of β-amyrin to yield α-Boswellic acid”.
